From the NIST ThermoML archive (doi:10.1021/je900722m)

Test: xn = mol fraction of the nth substance listed
Details: 101 kPa, Liquid

CC(C)(C)O [2-methylpropan-2-ol] + CCCCO
Details	mass density [kg/m3]	viscosity [mPa·s]
308.15 K, x2 = 0.1017	774.752	3.438
308.15 K, x2 = 0.2006	778.293	3.374
308.15 K, x2 = 0.3008	781.316	3.302
308.15 K, x2 = 0.4005	784.068	3.22
308.15 K, x2 = 0.5011	786.651	3.125
308.15 K, x2 = 0.6002	789.119	3.021
308.15 K, x2 = 0.6975	791.52	2.912
308.15 K, x2 = 0.7987	793.957	2.791
308.15 K, x2 = 0.8978	796.247	2.667
313.15 K, x2 = 0.1017	769.698	2.787
313.15 K, x2 = 0.2006	773.439	2.763
313.15 K, x2 = 0.3008	776.66	2.733
313.15 K, x2 = 0.4005	779.566	2.693
313.15 K, x2 = 0.5011	782.289	2.64
313.15 K, x2 = 0.6002	784.884	2.577
313.15 K, x2 = 0.6975	787.385	2.508
313.15 K, x2 = 0.7987	789.899	2.429
313.15 K, x2 = 0.8978	792.264	2.347
318.15 K, x2 = 0.1017	764.541	2.299
318.15 K, x2 = 0.2006	768.484	2.302
318.15 K, x2 = 0.3008	771.902	2.298
318.15 K, x2 = 0.4005	774.974	2.284
318.15 K, x2 = 0.5011	777.844	2.258
318.15 K, x2 = 0.6002	780.565	2.223
318.15 K, x2 = 0.6975	783.18	2.182
318.15 K, x2 = 0.7987	785.795	2.131
318.15 K, x2 = 0.8978	788.241	2.076
323.15 K, x2 = 0.1017	759.283	1.922
323.15 K, x2 = 0.2006	763.421	1.942
323.15 K, x2 = 0.3008	767.037	1.956
323.15 K, x2 = 0.4005	770.272	1.957
323.15 K, x2 = 0.5011	773.307	1.95
323.15 K, x2 = 0.6002	776.162	1.934
323.15 K, x2 = 0.6975	778.901	1.91
323.15 K, x2 = 0.7987	781.617	1.877
323.15 K, x2 = 0.8978	784.158	1.841
328.15 K, x2 = 0.1017	753.923	1.635
328.15 K, x2 = 0.2006	758.252	1.666
328.15 K, x2 = 0.3008	762.068	1.69
328.15 K, x2 = 0.4005	765.483	1.704
328.15 K, x2 = 0.5011	768.677	1.709
328.15 K, x2 = 0.6002	771.695	1.704
328.15 K, x2 = 0.6975	774.542	1.692
328.15 K, x2 = 0.7987	777.372	1.672
328.15 K, x2 = 0.8978	780.002	1.65
333.15 K, x2 = 0.1017	748.453	1.406
333.15 K, x2 = 0.2006	752.974	1.439
333.15 K, x2 = 0.3008	756.986	1.466
333.15 K, x2 = 0.4005	760.579	1.486
333.15 K, x2 = 0.5011	763.946	1.5
333.15 K, x2 = 0.6002	767.111	1.504
333.15 K, x2 = 0.6975	770.1	1.501
333.15 K, x2 = 0.7987	773.05	1.492
333.15 K, x2 = 0.8978	775.796	1.478
338.15 K, x2 = 0.1017	742.882	1.221
338.15 K, x2 = 0.2006	747.587	1.254
338.15 K, x2 = 0.3008	751.795	1.282
338.15 K, x2 = 0.4005	755.568	1.306
338.15 K, x2 = 0.5011	759.113	1.324
338.15 K, x2 = 0.6002	762.433	1.335
338.15 K, x2 = 0.6975	765.569	1.339
338.15 K, x2 = 0.7987	768.651	1.34
338.15 K, x2 = 0.8978	771.52	1.335
343.15 K, x2 = 0.1017	737.201	1.07
343.15 K, x2 = 0.2006	742.083	1.103
343.15 K, x2 = 0.3008	746.492	1.131
343.15 K, x2 = 0.4005	750.446	1.156
343.15 K, x2 = 0.5011	754.166	1.177
343.15 K, x2 = 0.6002	757.655	1.191
343.15 K, x2 = 0.6975	760.941	1.2
343.15 K, x2 = 0.7987	764.169	1.207
343.15 K, x2 = 0.8978	767.155	1.208
